Assay results: ChEMBL document CHEMBL1147749, “Aromatic sulfide inhibitors of histone deacetylase based on arylsulfinyl-2,4-hexadienoic acid hydroxyamides” (J Med Chem, 2006)
pIC50: −log10 of the molar value.

Assays:
Histone deacetylase [1] = assay: Inhibition of HDAC in rat liver homogenate; type: tissue-based
SUD4 = assay: Inhibition of human lymphoma SUD4 cell viability; type: functional, cell-based; conditions: SU-DHL-4
MCF7 = assay: Inhibition of human breast cancer MCF7 cell viability; type: functional, cell-based
HCT-116 = assay: Inhibition of human colorectal cancer HCT116 cell viability; type: functional, cell-based
Histone deacetylase [2] = assay: Inhibition of HDAC in human leukemic CEM cells; type: cell-based; conditions: ccrf-cem
CCRF-CEM = assay: Inhibition of human leukemic CEM cell viability; type: functional, cell-based

`CN(C)c1ccc2sc(/C=C/C=C/C(=O)NO)cc2c1` was tested, and the IC50 (Histone deacetylase [1]) was > 25 µM.
`O=C(CCCCC[S+]([O-])c1ccc(Cl)cc1)NO` (centres undefined) was tested, and the pIC50 (SUD4) was 5.12, the pIC50 (MCF7) was 5.21 and the pIC50 (HCT-116) was 5.41.
In the case of `COc1ccc([S+]([O-])C/C=C/C=C/C(=O)NO)cc1` (centres undefined), the IC50 (Histone deacetylase [2]) was 5.4 µM, the IC50 (Histone deacetylase [1]) was 0.41 µM and the pIC50 (CCRF-CEM) was 5.02.
With `CN(C)c1ccc([S+]([O-])CCCCCC(=O)NO)cc1` (centres undefined) the IC50 (Histone deacetylase [1]) was 0.18 µM.
With `O=C(CCCCCSc1ccccc1)NO` the IC50 (Histone deacetylase [1]) was 0.12 µM.
Compound `CN(C)c1ccc(Sc2cccc(/C=C/C(=O)NO)c2)cc1` has an IC50 (Histone deacetylase [2]) of 8.6 µM, an IC50 (Histone deacetylase [1]) of 0.16 µM and a pIC50 (CCRF-CEM) of 5.47.
`O=C(CCCCCC[S+]([O-])c1ccc(Cl)cc1)NO` (centres undefined) was tested, and the IC50 (Histone deacetylase [1]) was 0.38 µM.
`O=C(/C=C/C=C/CSc1ccc2ccccc2c1)NO` was tested, and the IC50 (Histone deacetylase [2]) was 9.4 µM, the IC50 (Histone deacetylase [1]) was 0.7 µM and the pIC50 (CCRF-CEM) was 5.77.
In the case of `O=C(/C=C/C=C/CSc1ccccc1)NO`, the IC50 (Histone deacetylase [2]) was > 25 µM and the IC50 (Histone deacetylase [1]) was 0.39 µM.
`O=C(CCCCCSc1ccc(NS(=O)(=O)c2ccc(Cl)cc2)cc1)NO` was tested, and the IC50 (Histone deacetylase [1]) was 0.11 µM.
`O=C(/C=C/C=C/CSc1ccc(Cl)cc1)NO` was tested, and the IC50 (Histone deacetylase [2]) was 1.6 µM, the IC50 (Histone deacetylase [1]) was 0.31 µM and the pIC50 (CCRF-CEM) was 5.80.
In the case of `O=C(CCCCCSc1ccc(Cl)cc1)NO`, the IC50 (Histone deacetylase [2]) was > 25 µM and the IC50 (Histone deacetylase [1]) was 0.26 µM.
For `O=C(/C=C/C=C/C[S+]([O-])c1ccccc1)NO` (centres undefined), the IC50 (Histone deacetylase [2]) was > 25 µM and the IC50 (Histone deacetylase [1]) was 0.24 µM.
`O=C(CCCCC[S+]([O-])c1ccccc1)NO` (centres undefined) was tested, and the IC50 (Histone deacetylase [2]) was 7.7 µM and the IC50 (Histone deacetylase [1]) was 0.06 µM.
`O=C(/C=C/C=C/C[S+]([O-])c1ccc(Cl)cc1)NO` (centres undefined) was tested, and the IC50 (Histone deacetylase [2]) was 1.2 µM and the IC50 (Histone deacetylase [1]) was 0.4 µM.
Compound `O=C(CCCCCS(=O)(=O)c1ccccc1)NO` has an IC50 (Histone deacetylase [1]) of 0.04 µM.
In the case of `CC(/C=C/C(=O)NO)=C\C(C)Sc1ccc(N(C)C)cc1` (centres undefined), the IC50 (Histone deacetylase [2]) was 5.3 µM, the IC50 (Histone deacetylase [1]) was 0.34 µM and the pIC50 (CCRF-CEM) was 5.12.
